Measured values published in article PMC11358582, “Discovery of a potential bladder cancer inhibitor CHNQD-01281 by regulating EGFR and promoting infiltration of cytotoxic T cells” (Marine Life Science & Technology, 2024).
In brackets after ≈: the same amount, converted by molar mass.

Experiments:
[1] = tested on: human hepatocyte cell line L-02; test: MTT cell proliferation assay; assay type: cell-based; conditions: L-02, MTT, 72 h
Experimental: (§1) Human tumor cell lines Eca-109, BEL-7402, BxPC-3, HCT-116, HT-29, T24, HCT-8, SGC-7901, DLD-1, TE-1, BT-549, MGC-803 and human hepatocyte cell line L-02 were cultured in Roswell Park Memorial Institute (RPMI) 1640. HuH-7 and SW-480 were cultured in Dulbecco’s modified Eagle’s medium (DMEM). J82, HepG2, Hela, U87 were cultured in Minimum Essential Medium (MEM). Murine bladder cancer cell line, MB49, was cultured in DMEM. The above-mentioned culture medium was provided by GIBCO (Grand Island, USA), contained 10% fetal bovine serum (PAN, Germany), 10 mg/mL of streptomycin, and 10 kU/mL penicillin (Beyotime, China).
(§2) Cells were seeded in 96-well plates and incubated with indicated concentrations of CHNQD-01281 for indicated periods. Next, medium was discarded and MTT (5 mg/mL) was added to each well. The cells were incubated at 37 °C for another 4 h. After that, supernatant was discarded, and DMSO was added and incubated at 37 °C for 15 min. Finally, absorbance was measured at 570 nm (Molecular Devices, USA).
Thus, the bladder cancer cell lines J82 and T24 were further investigated and treated by CHNQD-01281 under gradient concentrations (0.031−1.00 µmol/L) and times (24, 72 and 120 h) to measure proliferation activities (Fig. 2B). However, the inhibition of T24 or J82 cell lines by CHNQD-01281 was less than 50% even at the highest concentration of 1 µmol/L for 24 h. […] Therefore, CHNQD-01281 has a higher selectivity index compared to BFA.

T24 cells = test: MTT cell proliferation assay; assay type: cell-based, human
Experimental: as §1, §2
To investigate whether CHNQD-01281 had selective inhibitory effect on cancer cell lines, a variety of human tumor cell lines were assayed by MTT, such as bladder cancer cell lines (J82 and T24), colorectal cancer cell lines (HCT-116, HT-29, HCT-8, DLD-1 and SW-480), cervical cancer cell line (Hela), esophageal cancer cell lines (TE-1 and Eca-109), breast cancer cell line (BT-549), gastric carcinoma cell lines (MGC-803 and SGC-7901), glioma cell line (U87), pancreatic carcinoma cell line (BxPC-3) and hepatocellular carcinoma cell lines (Hep G2, BEL-7402 and HuH-7) (Fig. 2A).

[2] = Solubility in selected aqueous solutions; assay type: physicochemical
Text: The problem of poor water solubility is one of the factors that seriously restricts the preclinical application of BFA. Therefore, from the perspective of pharmaceutics, it is of great application value to explore safe and effective methods to improve its solubility. Based on the previous screening of commonly used solvents, solubilizers and co-solvents for BFA and its derivatives, we explored the solubility of CHNQD-01281, which was compared and assessed in selected aqueous solutions (Table 1). Saline or PBS were commonly used solvents, but the solubility of BFA or CHNQD-01281 was less than 1 mg/mL when used alone. No significant improvement in solubility was observed after the addition of DMSO or PEG400. […] More importantly, the solution system of CHNQD-01281 with saline/DMSO/solutol HS-15 (85/5/10) can fully meet the needs of follow-up experiments in vivo, such as pharmacodynamics, pharmacokinetics and safety evaluation.

Question: What does the source list for `C[C@H]1CCC/C=C/[C@@H]2C[C@H](O)C[C@H]2[C@H](O)/C=C/C(=O)O1` [BFA, Brefeldin A, reference compound]?
Answer: IC50 [1]: 42 nM; IC50 (T24 cells; Homo sapiens, T-24, T24, MTT, 72 h): 22 nM; SI (selectivity index) (T24 cells; L-02 versus T24): 1.91; solubility ([2]; 25 °C, pH 7.4, aqueous with cosolvent or surfactant or cyclodextrin, No. 2: Saline/DMSO 95/5, pH 7.4, 25 °C): < 1000 µg/mL; solubility ([2]; 25 °C, pH 7.4, aqueous with cosolvent or surfactant or cyclodextrin, No. 3: PBS/DMSO 95/5, pH 7.4, 25 °C): < 1000 µg/mL; solubility ([2]; 25 °C, pH 7.4, aqueous with cosolvent or surfactant or cyclodextrin, No. 4: Saline/PEG400 95/5, pH 7.4, 25 °C): < 1000 µg/mL; solubility ([2]; 25 °C, pH 7.4, aqueous with cosolvent or surfactant or cyclodextrin, No. 5: Saline/PEG400 80/20, pH 7.4, 25 °C): < 1000 µg/mL; solubility ([2]; 25 °C, pH 7.4, aqueous with cosolvent or surfactant or cyclodextrin, No. 6: Saline/DMSO/solutol HS-15 85/5/10, pH 7.4, 25 °C): 1000 to 1500 µg/mL (≈ 3.57 to 5.35 mM); solubility ([2]; 25 °C, pH 7.4, aqueous with cosolvent or surfactant or cyclodextrin, No. 7: Saline/solutol HS-15 95/5, pH 7.4, 25 °C): < 1000 µg/mL; solubility ([2]; 25 °C, pH 7.4, aqueous with cosolvent or surfactant or cyclodextrin, No. 8: Saline/solutol HS-15 90/10, pH 7.4, 25 °C): < 1000 µg/mL; solubility ([2]; 25 °C, pH 7.4, saline or isotonic, No. 1: Saline (0.9% NaCl) 100, pH 7.4, 25 °C): < 1000 µg/mL; solubility ([2]; Saline or PBS used alone): < 1000 µg/mL
